Key:
[1] = Acute oral toxicity evaluation in rats; type: in vivo, Wistar albino rats; conditions: single oral dose 10 mg/kg, after 14 days, (absolute organ weight × 100%)/body weight
Procedure: Healthy male rats (n = 24, three rats per group, body weight 180–200 g) were used for conducting an acute oral toxicity study. Animals were divided into the following groups: a control group that included rats that received a single dose of 1% DMSO and experimental groups that involved rats that received compounds 1–7 in the single dose of 10 mg/kg.
After oral administration of the aforementioned agents, rats were kept in single cages and monitored during 14 days. Food and water intake, as well as body weight, were measured daily. All the behavioral changes and any signs of toxicity were monitored daily during 2-week protocol (fur and skin, eyes, salivation, respiration, urination (color), faeces consistency, somatomotor activity, and other alterations in behavior pattern). After accomplishing 14 days, animals were sacrificed and organ weight (liver, kidney, stomach, and heart) was recorded. Relative organ weight was calculated as follows:(absolute organ weight × 100%)/body weight of rat on the day of sacrifice.(1)

[2] = target: T1, 5-LOX (Homo sapiens, UniProt P09917); assay: Fluorometric 5-LOX inhibitor screening kit; type: biochemical; conditions: mean ± standard error of two measurements; for inhibition at 10 µM: read-out: 5-LOX Percent of Inhibition
T1 construct: purchased Abcam, UK
T1 sequence (P09917 1-674): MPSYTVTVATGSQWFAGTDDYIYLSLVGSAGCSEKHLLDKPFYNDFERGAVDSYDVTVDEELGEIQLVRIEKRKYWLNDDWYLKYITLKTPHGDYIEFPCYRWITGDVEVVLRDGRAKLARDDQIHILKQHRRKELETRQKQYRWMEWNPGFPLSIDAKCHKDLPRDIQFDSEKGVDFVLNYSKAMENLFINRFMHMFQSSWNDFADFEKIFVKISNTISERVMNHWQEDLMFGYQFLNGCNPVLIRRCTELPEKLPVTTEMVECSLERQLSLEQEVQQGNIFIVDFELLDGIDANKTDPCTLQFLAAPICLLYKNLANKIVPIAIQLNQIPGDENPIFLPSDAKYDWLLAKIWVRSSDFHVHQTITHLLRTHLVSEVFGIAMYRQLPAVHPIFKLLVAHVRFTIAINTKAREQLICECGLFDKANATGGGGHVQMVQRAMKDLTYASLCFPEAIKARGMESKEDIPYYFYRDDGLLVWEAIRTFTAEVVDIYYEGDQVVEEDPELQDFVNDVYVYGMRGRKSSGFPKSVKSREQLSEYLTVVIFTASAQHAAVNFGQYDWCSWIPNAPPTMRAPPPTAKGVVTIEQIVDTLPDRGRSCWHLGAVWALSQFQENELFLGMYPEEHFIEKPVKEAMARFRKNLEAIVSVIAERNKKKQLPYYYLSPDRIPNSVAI
Procedure: COX-2 and 5-LOX inhibitory activities were tested using fluorometric COX-2 and 5-LOX inhibitor screening kits (Abcam, UK). These assays are based on the fluorometric detection of Prostaglandin G2 (a product generated by the COX enzyme) or on the fluorometric detection of intermediate generated by the 5-LOX enzyme. The experiments were conducted according to the manufacturers’ instructions.
For the determination of COX-2 inhibitory activity, tested compounds were dissolved in DMSO (5 mM stock solutions) and then diluted with the same solvent to obtain test solutions. Test solutions were further diluted 5X with COX assay buffer (2 µL of test solution and 8 µL COX assay buffer). […] Solvent control (SC) was prepared by adding 2 µL DMSO and 8 µL COX assay buffer, while sample (S) and enzyme control (EC) were prepared by adding 10 µL of diluted test solution and COX assay buffer, respectively, into assigned wells. For the determination of 5-LOX inhibitory activity, tested compounds were also dissolved in DMSO to prepare stock solutions with the same concentration (5mM), which were then diluted with the same solvent to obtain test solutions. Subsequently, test solutions were added to corresponding wells (2 µL).

[3] = system: carrageenan-induced rat paw edema; assay: Carrageenan-induced rat paw edema model; type: in vivo, Wistar albino rats; conditions: for Rat paw thickness: mean ± SD; for inhibition in vivo at 2.5 mg/kg / inhibition in vivo at 5 mg/kg / inhibition in vivo at 10 mg/kg: Rattus norvegicus, po
Procedure: In vivo assessment of anti-inflammatory activity of compounds 1–7 was conducted in the carrageenan-induced rat paw edema model. Inflammation in all rats was induced by an intraplantar injection of […] of 0.5% carrageenan saline in the left hind paw. Two hundred male Wistar albino rats (180–210 g) were divided into seven experimental (n = 168 rats, 8 rats per subgroup) and two control groups (n = 32 rats, 8 rats per subgroup).
Experimental groups involved rats that received compounds 1–7, and they were divided into three subgroups: rats received compounds 1–7 per os in three doses (2.5 mg/kg, 5 mg/kg, and 10 mg/kg) dissolved in 1% DMSO for 60 min before inducing inflammation.
In order to quantify the anti-inflammatory effect, the thickness of the left paw tissue of each rat was measured at the following time intervals: immediately before inducing inflammation (moment 0) and 1, 2, 3, and 4 h (moments 1, 2, 3, and 4) after inflammation. Tissue thickness was measured in the middle of the rat paw using a digital vernier caliper (Aerospace, Beijing, China).

[4] = 2.5 mg/kg per os, 1 h after carrageenan
[5] = 2.5 mg/kg per os, 2 h after carrageenan
[6] = 2.5 mg/kg per os, 3 h after carrageenan
[7] = 2.5 mg/kg per os, 4 h after carrageenan
[8] = 5.0 mg/kg per os, 1 h after carrageenan
[9] = 5.0 mg/kg per os, 2 h after carrageenan
[10] = 5.0 mg/kg per os, 3 h after carrageenan
[11] = 5.0 mg/kg per os, 4 h after carrageenan
[12] = 10.0 mg/kg per os, 1 h after carrageenan
[13] = 10.0 mg/kg per os, 2 h after carrageenan
[14] = 10.0 mg/kg per os, 4 h after carrageenan
[15] = 1 h, 2.5 mg/kg per os, 1 h after carrageenan
[16] = 1 h, 5.0 mg/kg per os, 1 h after carrageenan
[17] = 1 h, 10.0 mg/kg per os, 1 h after carrageenan
[18] = 2 h, 2.5 mg/kg per os, 2 h after carrageenan
[19] = 2 h, 5.0 mg/kg per os, 2 h after carrageenan
[20] = 2 h, 10.0 mg/kg per os, 2 h after carrageenan
[21] = 3 h, 2.5 mg/kg per os, 3 h after carrageenan
[22] = 3 h, 5.0 mg/kg per os, 3 h after carrageenan
[23] = 3 h, 10.0 mg/kg per os, 3 h after carrageenan
[24] = 4 h, 2.5 mg/kg per os, 4 h after carrageenan
[25] = 4 h, 5.0 mg/kg per os, 4 h after carrageenan
[26] = 4 h, 10.0 mg/kg per os, 4 h after carrageenan
[27] = 10.0 mg/kg per os, 3 h after carrageenan

Row | Structure (SMILES) | Relative organ weight, heart [1] | Relative organ weight, kidney [1] | Relative organ weight, liver [1] | Relative organ weight, stomach [1] | inhibition at 10 µM [2] [%] | Rat paw thickness [3, 4] [mm] | Rat paw thickness [3, 5] [mm] | Rat paw thickness [3, 6] [mm] | Rat paw thickness [3, 7] [mm] | Rat paw thickness [3, 8] [mm] | Rat paw thickness [3, 9] [mm] | Rat paw thickness [3, 10] [mm] | Rat paw thickness [3, 11] [mm] | Rat paw thickness [3, 12] [mm] | Rat paw thickness [3, 13] [mm] | Rat paw thickness [3, 14] [mm] | inhibition in vivo at 2.5 mg/kg [3, 15] [%] | inhibition in vivo at 5 mg/kg [3, 16] [%] | inhibition in vivo at 10 mg/kg [3, 17] [%] | inhibition in vivo at 2.5 mg/kg [3, 18] [%] | also measured
1 | COc1ccc2cc([C@H](C)C(=O)NC(=S)Nc3ccc(C(C)=O)cc3)ccc2c1 [Compound 5, (S)-N-((4-acetylphenyl)carbamothioyl)-2-(6-methoxynaphthalen-2-yl)propanamide] | 0.31 ± 0.03 | 0.30 ± 0.03 | 2.97 ± 0.33 | 0.53 ± 0.04 | 46.2 ± 4.87 | 5.73 ± 0.12 | 5.37 ± 0.25 | 5.20 ± 0.20 | 4.57 ± 0.15 | 5.05 ± 0.07 | 4.85 ± 0.07 | 4.40 ± 0.14 | 3.95 ± 0.07 | 5.5 ± 0.71 | 5.35 ± 0.64 | 4.75 ± 0.49 | 10.7 | 19.6 | 38.1 | 17.2 | IC50 [2]: 16.7 ± 1.79 µM; inhibition in vivo at 5 mg/kg [3, 19]: 19.5%; inhibition in vivo at 10 mg/kg [3, 20]: 37.9%; inhibition in vivo at 2.5 mg/kg [3, 21]: 10.5%; inhibition in vivo at 5 mg/kg [3, 22]: 28.8%; inhibition in vivo at 10 mg/kg [3, 23]: 39.7%; inhibition in vivo at 2.5 mg/kg [3, 24]: 31%; inhibition in vivo at 5 mg/kg [3, 25]: 41.4%; inhibition in vivo at 10 mg/kg [3, 26]: 47 to 54%
2 | CCOC(=O)C(Cc1ccccc1)NC(=S)NC(=O)C(C)c1ccc2cc(OC)ccc2c1 [Compound 6, Ethyl(((S)-2-(6-methoxynaphthalen-2-yl)propanoyl)carbamothioyl)-L-phenylalaninate] | 0.34 ± 0.02 | 0.35 ± 0.05 | 3.01 ± 0.29 | 0.55 ± 0.03 | 23.6 ± 2.14 | 6.17 ± 0.31 | 5.87 ± 0.23 | 5.37 ± 0.55 | 4.93 ± 0.21 | 6.47 ± 0.57 | 6.17 ± 0.06 | 5.77 ± 0.06 | 5.27 ± 0.21 | 6.20 ± 0.20 | 6.17 ± 0.23 | 5.03 ± 0.76 | 11.8 | 17.5 | 21.6 | 15.7 | Rat paw thickness [3, 27]: 5.27 ± 0.72 mm; inhibition in vivo at 5 mg/kg [3, 19]: 21.8%; inhibition in vivo at 10 mg/kg [3, 20]: 14.2%; inhibition in vivo at 2.5 mg/kg [3, 21]: 26.9%; inhibition in vivo at 5 mg/kg [3, 22]: 28.8%; inhibition in vivo at 10 mg/kg [3, 23]: 47.1%; inhibition in vivo at 2.5 mg/kg [3, 24]: 37.9%; inhibition in vivo at 5 mg/kg [3, 25]: 44.7%; inhibition in vivo at 10 mg/kg [3, 26]: 49.4%
3 | CCOc1ccc(NC(=S)NC(=O)[C@@H](C)c2ccc3cc(OC)ccc3c2)cc1 [Compound 3, (S)-N-((4-ethoxyphenyl)carbamothioyl)-2-(6-methoxynaphthalen-2-yl)propanamide] | 0.31 ± 0.03 | 0.32 ± 0.06 | 2.85 ± 0.17 | 0.50 ± 0.05 | 47 ± 4.32 | 6.25 ± 0.21 | 6.0 ± 0.57 | 5.50 ± 0.42 | 5.10 ± 0.14 | 6.40 ± 0.79 | 5.73 ± 0.38 | 5.44 ± 0.28 | 4.97 ± 0.42 | 6.23 ± 0.25 | 5.80 ± 0.26 | 4.67 ± 0.38 | 19.6 | 6.53 | 3.78 | 21.8 | IC50 [2]: 9.52 ± 1.51 µM; Rat paw thickness [3, 27]: 5.27 ± 0.15 mm; inhibition in vivo at 5 mg/kg [3, 19]: 26.4%; inhibition in vivo at 10 mg/kg [3, 20]: 12.6%; inhibition in vivo at 2.5 mg/kg [3, 21]: 34.2%; inhibition in vivo at 5 mg/kg [3, 22]: 28.6%; inhibition in vivo at 10 mg/kg [3, 23]: 25.1%; inhibition in vivo at 2.5 mg/kg [3, 24]: 44.7%; inhibition in vivo at 5 mg/kg [3, 25]: 42.5%; inhibition in vivo at 10 mg/kg [3, 26]: 47 to 54%
